Test results as given in patent publication US5225426A, “Thiazolidine-2,4-dione compound and method of treatment of diabetic complications” (Terumo Kabushiki Kaisha, priority 1990, dated 1993).

Legend:
aldose reductase = target: T1, aldose reductase (Rattus norvegicus, UniProt P07943); experiment: Determination of Aldose Reductase-inhibiting Activity; type: biochemical, Wistar type male rat (crystalline lens); settings: rat lens enzyme; 0.1 mM DL-glyceraldehyde, 0.03 mM NADPH, pH 7.0, 30° C., 30 minutes; read-out: 50% inhibition concentration (IC50)
T1 construct: From the crystalline lens, aldose reductase was prepared; from tissue; host or cells: crystalline lens of five-week old male Wistar rat
Protocol: A five-week old Wistar type male rat was sacrificed under anesthesia and immediately dissected to remove crystalline lens. From the crystalline lens, aldose reductase was prepared by following the Hyman et al's method [J. Biol. Chem., 240, 877-882 (1965)] with necessary modifications. The aldose reductase activity was determined by the Dufrane et al's method [Biochem. Med., 32, 99-105 (1984)]. In 400 μl of a 135 mM sodium-potassium phosphate buffer solution (pH 7.0) prepared in advance so as to contain 100 mM lithium sulfate, 0.03 mM NADPH (reducing type nicotinamide adenine dinucleotide phosphate), and 0.1 mM DL-glyceraldehyde as a substrate, 50 μl of the aforementioned aldose reductase and 50 μl of a sample of a varying concentration (having Compound 1, or Compound 2, or Compound 3 dissolved in ethanol) added thereto were left reacting at 30° C. for 30 minutes. Then, the reaction was stopped by addition of 0.15 ml of 0.5N hydrochloric acid. The NADP (oxide type nicotinamide adenine dinucleotide phosphate) produced by the reaction in the reaction mixture was converted into a fluorescent substance by the addition thereto of 0.5 ml of 6N sodium hydroxide containing 10 mM imidazole. After the elapse of 60 minutes following the conversion, the produced reaction mixture was tested for intensity of fluorescence. The intensity of fluorescence was determined by the use of a fluorescence tester (produced by Corona Denki K.K. and marketed under trademark designation of "MTP-100F Corona Microplate Reader") under the conditions of 360 nm of excitation wavelength and 460 nm of fluorescent wavelength. The intensity of fluorescence determined by repeating the procedure described above, except ethanol was added in the place of the sample was used as a control value. As the aldose reductase inhibiting activity of a sample, the concentration of the sample required for inhibiting 50% of the aldose reductase activity due to a decline of the intensity of fluorescence (i.e. 50% inhibition concentration: IC50 value) was obtained.

blood sugar = experiment: Blood sugar drop ratio in streptozotocin diabetic rats; type: in vivo, Wistar type male rats; settings: oral, four days, blood 3 hours after administration
Protocol: (§1) Groups each of five three-week old Wistar type male rats were used for the test. To the rats, streptozotocin was administered at a concentration of 65 mg/kg via the tail vein. Of these rats, those whose blood sugar values fell in the range of from 250 to 650 mg/dl one week after the administration were designated as diabetic rats. As a control medicine, Compound 4 represented by the formula VII was used. [drawing 9]
(§2) The five groups, i.e. the group of untreated diabetic rats, the group of rats subjected to administration of control medicine (50 mg/kg×2/day), the group of rats subjected to administration of sample (100 mg/kg/day), and the group of normal rats, were tested. A given medicine was suspended in 5% gum arabic and orally administered continually for four days after the elapse of two weeks following the onset of diabetes. To the group of untreated diabetic rats and the group of normal rats, a 5% gum arabic solution […] was administered in a ratio of 10 ml/kg. After the elapse of three hours following the administration, the blood was extracted from each rat with the aid of heparin via the tail vein (for the determination of blood sugar) and the abdominal aorta.
The PRC was tested for sorbitol content by the Malon et al's method [Diabetes, 29, 861-864 (1980)]. The determination of the blood sugar value was carried out by the alucose-oxidase method.
The blood sugar drop ratio and the sorbitol accumulation inhibition ratio were calculated in accordance with Formula 1 and Formula 2.
Blood sugar drop ratio (%)=(1-[(Average blood sugar value of the group of rats subjected to administration of sample or control medicine-Average blood sugar value of the group of normal rats)/(Average blood sugar value of the group of untreated diabetic rats-Average blood sugar value of the group of normal rats)])×100

in vivo = settings: mouse, oral, ICR type male mice (five-week old)
Protocol: The compounds 1, 2 and 3 of this invention were tested for acute toxicity by oral administration thereof to ICR type male mice (five-week old).

[1] = system: Sorbitol in Red Blood Cells; experiment: Action to Curb Accumulation of Sorbitol in Red Blood Cells (streptozotocin diabetic rats); type: in vivo, Wistar type male rats; settings: control medicine 50 mg/kg×2/day, oral, four days; packed red cells, blood 3 hours after administration
Protocol: as §1
as §2, with “aorta. […]” for “aorta.”
The blood sugar drop ratio and the sorbitol accumulation inhibition ratio were calculated in accordance with Formula 1 and Formula 2. […]

SMILES	IC50 (aldose reductase)	Blood sugar drop ratio (blood sugar; sample 100 mg/kg/day)	LD50 (in vivo)	Blood sugar drop ratio (blood sugar; control medicine 50 mg/kg×2/day)	Sorbitol accumulation inhibition ratio [1]
O=C1NC(=O)C(Cc2ccc(C(=O)C=Cc3ccc(O)c(O)c3)cc2)S1 (centres unmarked) [Compound 1, 5-{4-[3-(3,4-dihydroxyphenyl)-2-propenoyl]benzyl}thiazolidine-2,4-dione]	520 nM	46.8%	≥ 1000 mg/kg	–	–
COc1cc(C=CC(=O)c2ccc(CC3SC(=O)NC3=O)cc2)ccc1O (centres unmarked) [Compound 2, 5-{4-[3-(4-hydroxy-3-methoxyphenyl)-2-propenoyl]benzyl}thiazolidine-2,4-dione]	4200 nM	60.5%	≥ 1000 mg/kg	–	–
COc1cc(C=CC(=O)c2cccc(CC3SC(=O)NC3=O)c2)ccc1O (centres unmarked) [Compound 3, 5-{3-[3-(4-hydroxy-3-methoxyphenyl)-2-propenoyl]benzyl}thiazolidine-2,4-dione]	1900 nM	42.6%	≥ 1000 mg/kg	–	–
CC(=Cc1ccccc1)C=C1SC(=S)N(CC(=O)O)C1=O [Compound 4, reference compound]	–	–	–	7.2%	90.3%
